Experiments:
[1] = system: DDPAC model RNA; experiment: Optical melting, DDPAC RNA; format: binding; details: 2 at 1.5 μM
Protocol: (§1) Optical Melting Experiments. The thermal stabilities of WT, DDPAC, and DDPAC+I17T model RNAs were analyzed by optical melting in the presence or absence of compound 1 or 2 as previously described.^18 The RNAs (2 μM) were heated to 95° C. in 1×PBS buffer and slowly cooled to room temperature. The samples were then cooled to 15° C. in the presence of compound 1 (10 μM; 0.1% (v/v) DMSO), 2 (1.5 μM; 0.1% (v/v) DMSO) or vehicle (0.1% (v/v) DMSO) and then heated to 85° C. at a rate of 1° C. per min. Absorbance as a function of temperature was measured at 260 nm using a Beckman Coulter DU800 UV/vis spectrophotometer. Melting curves were fitted with MeltWin 3.5.^31

[2] = target: WT I17T mutant RNA; experiment: Fluorescent binding affinity, WT I17T mutant RNA
Protocol: (§2) Fluorescent Binding Affinity Measurements. Binding assays were completed as previously described.^30 Briefly, the RNA of interest was folded in 1× Assay Buffer-1 (AB1: 8 mM Na2HPO4, pH 7.0, 185 mM NaCl, and 1 mM EDTA) by heating at 95° C. for 30 s followed by slowly cooling to room temperature. Bovine serum albumin (BSA) was then added to a final concentration of 40 μg/mL to afford 1× Assay Buffer-2 (AB2: 8 mM Na2HPO4, pH 7.0, 185 mM NaCl, 1 mM EDTA, and 40 μg/mL BSA). The RNA solution was serial diluted with 1×AB2. Then, compound of interest was added to the RNA solutions to a final concentration of 0.5 μM. […] Fluorescence intensity was measured using a Tecan Plate Reader (Gain: 100, Integration time: 40 μs). […] The change in fluorescence of the small molecule was calculated by its comparison to samples lacking RNA. Binding affinity was calculated using Equation 1, as previously described:^30
(§3) where I and I0 are the measured fluorescence intensity of the compound with or without RNA, respectively, Δε is the difference between the fluorescence intensity with the infinite concentration of RNA and the fluorescence intensity without RNA, [SM]0 and [RNA]0 are the concentrations of the small molecule (SM) and RNA, respectively, and Kd is the dissociation constant.

[3] = system: dually labeled DDPAC MAPT SRE RNA / U1 snRNA mimic; experiment: U1 snRNA mimic FRET-based quenching assay; format: biochemical
Protocol: U1 snRNA Mimic Quenching Assay. A 200 nM aliquot of dually labeled model of the DDPAC RNA (5′-FAM-[…]-BHQ-1-3′ (SEQ ID NO: 5); where FAM is 5 (6)-Carboxyfluorescein and BHQ-1 is black hole quencher) was folded in 1× Assay Buffer as described in Fluorescent Binding Affinity Measurements. Compound of interest at the indicated concentration was added, and the samples were incubated at room temperature in the dark for 15 min. A U1 snRNA mimic with sequence 5′-[…]-3′ (SEQ ID NO: 6) was then added to the samples to a final concentration of 20 μM. The fluorescence intensity of FAM was measured as a function of time for 1 h using a […] plate reader, with excitation and emission wavelengths of 485 and 525 nm, respectively.

[4] = system: htau mice; experiment: Nesting activity, htau mice; format: in vivo, htau mouse; details: scale 1-5, 100 mg/kg p.o. q.o.d.
Protocol: Nesting Activity. From Day 1 to Day 20, mice were individually housed and nesting material from the previous day was removed. An intact 3.0 g nestlet was placed within each cage. Around 15 h later, the resulting nest was photographed for qualitative scoring, and the untorn nestlet was weighed if present. All nest images and weights were analyzed by a blinded individual and based on published criteria.^43 In brief, nesting is scored on a rating scale of 1-5 where if the nestlet is over 90% intact, it is given a nestlet score is 1 (Poor; FIG. 4C). When the nestlet is partially torn but >50% remains, the nestlet score is 2; a score of 3 is assigned when 50-90% of the nestlet is torn but spread around the cage and no identifiable nest site is found (Medium; FIG. 4C). When more than 90% of the nestlet is torn and the nest is identifiable but flat, the nestlet score is 4. When a near perfect nest is built and the wall is higher than the mouse's body, it is assigned a nestlet score of 5 (Good; FIG. 4C).

[5] = system: WT MAPT SRE RNA; experiment: Fluorescent binding affinity, WT SRE RNA
Protocol: as §2, §3

[6] = system: WT model RNA; experiment: Optical melting, WT RNA; format: binding; details: 2 at 1.5 μM
Protocol: as §1

[7] = target: 7-deaza-guanosine WT RNA; experiment: Fluorescent binding affinity, 7-deaza-guanosine WT RNA; details: n=3, read-out: Kd (affinity for the modified RNA)
Protocol: as §2, §3

Kd (estimated; no saturable binding) [2]: > 50 µM
lower IC50 compared with 1 ([3]; end-point FRET assay (FIG. 15C), 2 vs 1): around 5 fold
IC50 ([3]; end-point measurement (5 min), read-out: IC50, reduction in FAM fluorescence (U1 snRNA mimic binding)): 900 ± 200 nM
higher affinity for the MAPT SRE than 1 ([5]; 2 vs 1): ~ 6 fold
Kd ([5]; WT RNA, inherent fluorescence, n=3): 550 ± 110 nM
Kd [7]: 3.4 ± 0.9 µM
SMILES: COc1cc(N)ncc1CCCN(C)CCCn1cnc2c3ccccc3n(C)c2c1=O [Compound 2, 3-(3-((3-(6-amino-4-methoxypyridin-3-yl)propyl)(methyl)amino)propyl)-5-methyl-3,5-dihydro-4H-pyrimido[5,4-b]indol-4-one]
increase of Tm [1]: 1.36±0.11 °C
more potent than 1 in multiple biochemical assays ([3]; 2 vs 1, multiple biochemical assays): at least 6 fold
rate of increase of FAM signal (unfolding by U1 snRNA mimic) ([3]; compound 10 μM, vehicle 0.49 min-1): 0.37 min⁻¹
nesting score at Day 2 [4]: 2.6±1.1
nesting score at Day 20 [4]: 4.5±0.4
increase of Tm [6]: 0.76±0.1 °C

— patent publication US20260308158A1, “TARGETING RNAS ASSOCIATED WITH TAUOPATHIES WITH SMALL MOLECULES” (University of Florida Research Foundation, Incorporated, priority 2023, published 2026)
